Ends that are not written are not given here.
What was measured:
ob/ob mice = experiment: Acute antihyperglycaemic and insulin releasing activity with glucose and native GIP in ob/ob mice; assay type: in vivo, mouse; settings: for plasma glucose and insulin profiles when administered together with native GIP: 25 nmol/kg i.p. with GIP and glucose 18 mmol/kg, vs native GIP
Method: Animals. Obese diabetic (ob/ob) mice derived from the colony maintained at Aston University, UK (Bailey C. J. et al., 1982, Int. J. Obes. 6:11-21) were used at 14-18 weeks of age. Animals were age-matched, divided into groups and housed individually in an air-conditioned room at 22±2° C. with a 12 hour light: 12 hour dark cycle (08:00-20:00 hr). Drinking water and a standard rodent maintenance diet (Trouw Nutrition, Cheshire, UK) were freely available. All animal experiments were carried out in accordance with the UK Animals (Scientific Procedures) Act 1986.
Biochemical analysis. Plasma glucose was assayed by an automated glucose oxidase procedure ([…]) using a Beckman Glucose Analyzer II (Beckman Instruments, Galway, Ireland). Plasma insulin was assayed by radioimmunoassay.
Methods. […] All test solutions were administered in a final volume of 5 ml/kg body weight. Blood samples were collected from the cut tip of the tail vein of conscious mice into chilled fluoride/heparin coated glucose microcentrifuge tubes (Sarstedt, Numbrecht, Germany) immediately prior to injection and at 15, 30 and 60 minutes post injection. Blood samples were immediately centrifuged using a Beckmnan microcentrifuge (Beckman Instruments, High Wycombe, Buckinghamshire, UK) for 30 seconds at 13,000×g. Plasma glucose was assayed using a Beckman Glucose Analyzer n (Beckman Instruments, High Wycombe, Buckinghamshire, UK) (Stevens, J. F., 1971, Clin. Chim. Acta 32:199-201) and plasma insulin was determined by RIA (Flatt, P. R. and Bailey, C. J., 1981, Diabetologia 5:573-577). All animal studies were carried out in accordance with the UK Animals (Scientific Procedures) Act 1986.

DPP-IV = DPP-IV (Homo sapiens, UniProt P27487); experiment: Degradation of GIP and Glu3-substituted GIP analogs by DPP-IV (HPLC); assay type: in vitro ADME; settings: for half-life at 2 μm: DPP-IV enzyme (5 mU) in buffer, pH 7.8, incubation with DPP-IV, unit not given (time points in hrs), read-out: Estimated Half-Life (converted); for Intact Peptide Remaining (%) 0 hrs. / remaining at 2 h, 2 μm / remaining at 4 h, 2 μm / remaining at 8 h, 2 μm: incubation with DPP-IV (5 mU), 37°C; for Intact Peptide Remaining (%) 0 hrs.: pH 7.8, 0 hrs; for remaining at 2 h, 2 μm / remaining at 4 h, 2 μm / remaining at 8 h, 2 μm: isolated DPP-IV enzyme (5 mU); for remaining at 2 h, 2 μm: pH 7.8, 2 hrs, read-out: Intact Peptide Remaining (%) 2 hrs.; for remaining at 4 h, 2 μm: pH 7.8, 4 hrs, read-out: Intact Peptide Remaining (%) 4 hrs.; for remaining at 8 h, 2 μm: pH 7.8, 8 hrs, read-out: Intact Peptide Remaining (%) 8 hrs.; for resistance to DPP-IV degradation: words, up to 8 hours incubation
BRIN-BD11 cells = experiment: Insulin secretion from BRIN-BD11 cells; assay type: cell-based; settings: for Maximal insulin response (% GIP max) / Insulin response in presence of 10^-7 M GIP (% GIP max): 5.6 mm glucose; for Maximal insulin response (% GIP max): 20 min; for Insulin response in presence of 10^-7 M GIP (% GIP max): in presence of 10^-7 M native GIP; for effect on GIP-stimulated insulin secretion: in presence of GIP (10^-7 m)
Method: (§1) Tissue Culture. Chinese Hamster Lung (CHL) fibroblast cells stably transfected with the human GIP-R were cultured in DMEM tissue culture medium containing 10%. (v/v) fetal bovine serum, 1% (v/v) antibiotics (100 U/ml penicillin, 0.1 mg/ml streptomycin) (all from Gibco, Paisley, Strathclyde, Scotland). BRIN-BD11 cells were cultured in RPMI-1640 tissue culture medium containing 10% (v/v) fetal bovine serum, 1% (v/v) antibiotics (100 U/ml penicillin, 0.1 mg/ml streptomycin) and 11.1 mm glucose. The origin and secretory characteristics of these cells have been described in detail previously (McClenaghan, N. H. et al., 1996, Diabetes 45:1132-1140). The cells were maintained in sterile tissue culture flasks (Corning Glass Works, Sunderland, UK) at 37° C. in an atmosphere of 5% CO2 and 95% air using a LEEC incubator (Laboratory Technical Engineering, Nottingham, UK).
Methods. Insulin release from BRIN-BD11 cells was determined by use of cell monolayers as described previously (Gault, V. A. et al. 2002, Biochem. J. 367:913-920). In brief, BRIN-BD11 cells were seeded into 24-well plates (Nunc, Roskilde, Denmark) at a density of 1.5×10^5 cells per well and allowed to attach overnight in RPMI-1640 culture medium at 37° C. Acute tests for insulin secretion were preceded by 40 minutes pre-incubation at 37° C. in 1.0 ml Krebs Ringer Bicarbonate Buffer (KRBB, 115 mm NaCl, 4.7 mm KCl, 1.28 mm CaCl2, 1.2 mM MgSO4, 1.2 mm KH2PO4, 25 mM HEPES and 10 mm NaHCO3; pH 7.4 with NaOH) supplemented with 0.1% (w/v) BSA and 1.1 mM glucose. […] After 20 minutes incubation, the buffer was removed and used for measurement of insulin by radioimmunoassay (Flatt, P. R. and Bailey, C. J., 1981, Diabetologia 5:573-577).

human GIP-R = target: T1, human GIP-R (Homo sapiens, UniProt P48546); experiment: Cyclic AMP production in GIP-R transfected CHL cells; assay type: cell-based; settings: for remaining activity at 0.1 µM: CHL, read-out: cAMP response in presence of 10^-7 M GIP (% GIP max); for inhibition of GIP-stimulated cAMP production: in presence of GIP (10^-7 m)
T1 construct: expressed in transfected cells; host or cells: Chinese Hamster Lung (CHL) fibroblast cells, stably transfected
T1 sequence (P48546 22-466): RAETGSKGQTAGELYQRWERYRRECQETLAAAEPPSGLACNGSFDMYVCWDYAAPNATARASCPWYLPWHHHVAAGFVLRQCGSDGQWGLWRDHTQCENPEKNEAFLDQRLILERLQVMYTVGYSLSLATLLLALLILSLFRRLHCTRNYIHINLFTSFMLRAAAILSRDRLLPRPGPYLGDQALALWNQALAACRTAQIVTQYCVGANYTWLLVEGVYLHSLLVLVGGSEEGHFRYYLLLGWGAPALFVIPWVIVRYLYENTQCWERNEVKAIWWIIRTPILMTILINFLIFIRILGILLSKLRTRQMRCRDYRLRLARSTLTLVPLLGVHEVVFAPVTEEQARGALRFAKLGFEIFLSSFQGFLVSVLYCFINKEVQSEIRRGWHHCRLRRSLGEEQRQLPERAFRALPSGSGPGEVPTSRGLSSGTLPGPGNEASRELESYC
Method: as §1, with “Chinese Hamster Lung (CHL) fibroblast cells stably transfected with the human GIP-R were cultured in DMEM tissue culture medium containing 10%.” left out
Methods. […] The culture medium was removed and cells subsequently washed twice with 2 ml ice-cold HBS buffer (130 mm NaCl, 20 mm HEPES, 0.9 mm NaHPO4, 0.8 mm MgSO4, 5.4 mm KCl, 1.8 mm CaCl2, 5.6 mm glucose and 25 μm phenol red) (pH 7.4). […] The medium was subsequently removed and the cells lysed with […] of lysing solution (5% TCA, 3% SDS, 92% H2O, also containing 0.1 mm unlabelled cAMP and 0.1 mm unlabelled ATP) (Sigma, Poole, Dorset, UK). The plates were then left on a shaker at room temperature for 30 minutes and tritiated cAMP formation determined by column chromatography using Dowex and alumina ion exchange columns (BioRad Life Science Research, Alpha Analytical, Larne, UK) as previously described (Gault, V. A. et al 2002, Biochem. J. 367:913-920).

DPP-IV, sequence (P27487 whole entry, species assumed): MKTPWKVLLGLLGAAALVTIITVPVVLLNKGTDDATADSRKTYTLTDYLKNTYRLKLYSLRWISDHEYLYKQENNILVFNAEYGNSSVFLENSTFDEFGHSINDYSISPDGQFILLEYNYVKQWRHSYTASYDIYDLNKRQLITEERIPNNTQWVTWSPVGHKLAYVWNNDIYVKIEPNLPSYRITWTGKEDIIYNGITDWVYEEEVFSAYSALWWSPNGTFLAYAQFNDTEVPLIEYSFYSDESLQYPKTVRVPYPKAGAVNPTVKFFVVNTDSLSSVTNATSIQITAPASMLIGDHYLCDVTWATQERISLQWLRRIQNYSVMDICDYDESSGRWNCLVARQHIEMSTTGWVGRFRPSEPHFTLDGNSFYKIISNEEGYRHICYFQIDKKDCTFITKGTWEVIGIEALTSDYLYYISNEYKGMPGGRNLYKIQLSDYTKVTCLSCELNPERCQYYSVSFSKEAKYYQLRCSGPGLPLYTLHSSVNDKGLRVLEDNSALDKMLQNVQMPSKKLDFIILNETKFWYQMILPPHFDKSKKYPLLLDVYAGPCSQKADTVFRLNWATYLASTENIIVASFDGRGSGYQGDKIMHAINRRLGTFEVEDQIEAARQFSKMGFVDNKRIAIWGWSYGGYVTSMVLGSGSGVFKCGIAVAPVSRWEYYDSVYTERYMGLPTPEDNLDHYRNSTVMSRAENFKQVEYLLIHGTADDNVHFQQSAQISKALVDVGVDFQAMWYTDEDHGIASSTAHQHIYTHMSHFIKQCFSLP

CC[C@H](C)[C@H](NC(=O)[C@H](CO)NC(=O)[C@H](Cc1ccc(O)cc1)NC(=O)[C@H](CC(=O)O)NC(=O)[C@H](CO)NC(=O)[C@@H](NC(=O)[C@H](Cc1ccccc1)NC(=O)[C@@H](NC(=O)CNC(=O)[C@H](CCC(=O)O)NC(=O)[C@H](C)NC(=O)[C@@H](N)Cc1ccc(O)cc1)[C@@H](C)O)[C@@H](C)CC)C(=O)N[C@@H](C)C(=O)N[C@@H](CCSC)C(=O)N[C@@H](CC(=O)O)C(=O)N[C@@H](CCCCN)C(=O)N[C@H](C(=O)N[C@@H](Cc1c[nH]cn1)C(=O)N[C@@H](CCC(N)=O)C(=O)N[C@@H](CCC(N)=O)C(=O)N[C@@H](CC(=O)O)C(=O)N[C@@H](Cc1ccccc1)C(=O)N[C@H](C(=O)N[C@@H](CC(N)=O)C(=O)N[C@@H](Cc1c[nH]c2ccccc12)C(=O)N[C@@H](CC(C)C)C(=O)N[C@@H](CC(C)C)C(=O)N[C@@H](C)C(=O)N[C@@H](CCC(N)=O)C(=O)N[C@@H](CCCCN)C(=O)NCC(=O)N[C@@H](CCCCN)C(=O)N[C@@H](CCCCN)C(=O)N[C@@H](CC(N)=O)C(=O)N[C@@H](CC(=O)O)C(=O)N[C@@H](Cc1c[nH]c2ccccc12)C(=O)N[C@@H](CCCCN)C(=O)N[C@@H](Cc1c[nH]cn1)C(=O)N[C@@H](CC(N)=O)C(=O)N[C@H](C(=O)N[C@H](C(=O)N[C@@H](CCC(N)=O)C(=O)O)[C@@H](C)O)[C@@H](C)CC)C(C)C)[C@@H](C)CC [GIP, reference compound]
glycaemic excursion and insulin response (ob/ob mice; compared with i.p. glucose alone): decreased the glycaemic excursion and enhanced insulin response | half-life at 2 μm (DPP-IV): 1.3 h | Intact Peptide Remaining (%) 0 hrs. (DPP-IV): 100% | remaining at 2 h, 2 μm (DPP-IV): 20.9 ± 1.6% | remaining at 4 h, 2 μm (DPP-IV): 4.9 ± 1.2% | remaining at 8 h, 2 μm (DPP-IV): 0% | resistance to DPP-IV degradation (DPP-IV): complete degradation by 8 hours | Maximal insulin response (% GIP max) (BRIN-BD11 cells; BRIN-BD11 cells): 100 % GIP max | Insulin response in presence of 10^-7 M GIP (% GIP max) (BRIN-BD11 cells; BRIN-BD11 cells): 100 % GIP max

YAAGTFISDYSIAMDKIHQQDFVNWLLAQKGKKNDWKHNITQ [(Ala^3)GIP]
EC50 (human GIP-R): 2.3 nM | remaining activity at 0.1 µM (human GIP-R): 88 ± 3% | inhibition of GIP-stimulated cAMP production (human GIP-R): did not significantly inhibit | plasma glucose and insulin profiles when administered together with native GIP (ob/ob mice): significantly inhibited the action of GIP | half-life at 2 μm (DPP-IV): 1.1 h | Intact Peptide Remaining (%) 0 hrs. (DPP-IV): 100% | remaining at 2 h, 2 μm (DPP-IV): 5.9 ± 1.7% | remaining at 4 h, 2 μm (DPP-IV): 2.7 ± 0.1% | remaining at 8 h, 2 μm (DPP-IV): 0% | resistance to DPP-IV degradation (DPP-IV): least resistant | Maximal insulin response (% GIP max) (BRIN-BD11 cells; BRIN-BD11 cells): 111 ± 6 % GIP max | Insulin response in presence of 10^-7 M GIP (% GIP max) (BRIN-BD11 cells; BRIN-BD11 cells): 115 ± 3 % GIP max | stimulation of insulin secretion compared with control incubations (BRIN-BD11 cells; BRIN-BD11 cells, vs 5.6 mm glucose alone): 1.7 fold | effect on GIP-stimulated insulin secretion (BRIN-BD11 cells): did not significantly affect

YAFGTFISDYSIAMDKIHQQDFVNWLLAQKGKKNDWKHNITQ [(Phe^3)GIP]
EC50 (human GIP-R): 1 nM | remaining activity at 0.1 µM (human GIP-R): 62 ± 3% | inhibition of GIP-stimulated cAMP production (human GIP-R): significantly inhibited | plasma glucose and insulin profiles when administered together with native GIP (ob/ob mice): significantly inhibited the action of GIP | half-life at 2 μm (DPP-IV): 1.2 h | Intact Peptide Remaining (%) 0 hrs. (DPP-IV): 100% | remaining at 2 h, 2 μm (DPP-IV): 15 ± 5.2% | remaining at 4 h, 2 μm (DPP-IV): 2.5 ± 0.1% | remaining at 8 h, 2 μm (DPP-IV): 0% | Maximal insulin response (% GIP max) (BRIN-BD11 cells; BRIN-BD11 cells): 75 ± 3 % GIP max | Insulin response in presence of 10^-7 M GIP (% GIP max) (BRIN-BD11 cells; BRIN-BD11 cells): 73 ± 3 % GIP max | effect on GIP-stimulated insulin secretion (BRIN-BD11 cells): significantly inhibited

YAKGTFISDYSIAMDKIHQQDFVNWLLAQKGKKNDWKHNITQ [(Lys^3)GIP]
EC50 (human GIP-R): 2.6 nM | remaining activity at 0.1 µM (human GIP-R): 63.5 ± 4% | inhibition of GIP-stimulated cAMP production (human GIP-R): significantly inhibited | plasma glucose and insulin profiles when administered together with native GIP (ob/ob mice): did not significantly alter | half-life at 2 μm (DPP-IV): 1.7 h | Intact Peptide Remaining (%) 0 hrs. (DPP-IV): 100% | remaining at 2 h, 2 μm (DPP-IV): 41.4 ± 0.3% | remaining at 4 h, 2 μm (DPP-IV): 14.9 ± 1.1% | remaining at 8 h, 2 μm (DPP-IV): 0% | resistance to DPP-IV degradation (DPP-IV): significantly more resistant | Maximal insulin response (% GIP max) (BRIN-BD11 cells; BRIN-BD11 cells): 78 ± 3 % GIP max | Insulin response in presence of 10^-7 M GIP (% GIP max) (BRIN-BD11 cells; BRIN-BD11 cells): 78 ± 4 % GIP max | effect on GIP-stimulated insulin secretion (BRIN-BD11 cells): significantly inhibited

YAWGTFISDYSIAMDKIHQQDFVNWLLAQKGKKNDWKHNITQ [(Trp^3)GIP]
EC50 (human GIP-R): 3 nM | remaining activity at 0.1 µM (human GIP-R): 78 ± 2% | inhibition of GIP-stimulated cAMP production (human GIP-R): did not significantly inhibit | plasma glucose and insulin profiles when administered together with native GIP (ob/ob mice): did not significantly alter | half-life at 2 μm (DPP-IV): 1.3 h | Intact Peptide Remaining (%) 0 hrs. (DPP-IV): 100% | remaining at 2 h, 2 μm (DPP-IV): 22.5 ± 1.7% | remaining at 4 h, 2 μm (DPP-IV): 4.7 ± 2.4% | remaining at 8 h, 2 μm (DPP-IV): 0% | Maximal insulin response (% GIP max) (BRIN-BD11 cells; BRIN-BD11 cells): 73 ± 2 % GIP max | Insulin response in presence of 10^-7 M GIP (% GIP max) (BRIN-BD11 cells; BRIN-BD11 cells): 100 ± 5 % GIP max | effect on GIP-stimulated insulin secretion (BRIN-BD11 cells): did not significantly affect
